# According to patent US7618975B2, “4-arylamino-quinazolines and analogs as activators of caspases and inducers of apoptosis and the use thereof” (Myriad Pharmaceuticals, Inc., priority 2003, dated 2009):
# System: T-47D cells
# Assay: Caspase cascade activation (N-(Ac-DEVD)-N′-ethoxycarbonyl-R110 fluorogenic substrate) in T-47D cells; on Caspase activity Ratio T-47D (24 hr): test concentration or dose not given here; on Caspase activity Ratio T-47D (48 hr): test concentration or dose not given here
# Format: cell-based, Human
# Conditions: T-47D, 24 hr; ratio of net RFU to control
row,Structure (SMILES),Caspase activity Ratio T-47D (24 hr)
1,"Cc1nc(N(C)c2ccc([N+](=O)[O-])cc2)c2ccccc2n1 [Example 100, (2-Methyl-quinazolin-4-yl)-(4-nitro-phenyl)-methyl-amine]",8.9
2,"Cc1nc(N(C)c2ccc(N)cc2)c2ccccc2n1 [Example 101, (4-Amino-phenyl)-(2-methyl-quinazolin-4-yl)-methyl-amine]",9.5
3,"Cc1nc(N(C)c2ccc(N=[N+]=[N-])cc2)c2ccccc2n1 [Example 102, (4-Azido-phenyl)-(2-methyl-quinazolin-4-yl)-methyl-amine]",8.8
4,"Cc1nc(N(C)c2c(Br)cc(N)cc2Br)c2ccccc2n1 [Example 103, (4-Amino-2,6-dibromo-phenyl)-(2-methyl-quinazolin-4-yl)-methyl-amine]",9.3
5,"Cc1nc(N(C)c2ccc(N)cc2Br)c2ccccc2n1 [Example 104, (4-Amino-2-bromo-phenyl)-(2-methyl-quinazolin-4-yl)-methyl-amine]",8.6
6,"Cc1nc(N(C)c2ccc(N(C)C)cc2)c2ccccc2n1 [Example 105, (4-Dimethylamino-phenyl)-(2-methyl-quinazolin-4-yl)-methyl-amine]",8.5
7,"CCOc1ccc(Nc2nc(C)nc3ccccc23)cc1 [Example 106, (4-Ethoxy-phenyl)-(2-methyl-quinazolin-4-yl)-amine]",1.1
8,"CCOc1ccc(N(C)c2nc(C)nc3ccccc23)cc1 [Example 107, (4-Ethoxy-phenyl)-(2-methyl-quinazolin-4-yl)-methyl-amine]",5.2
9,[2H]c1c([2H])c(N(C)c2nc(C)nc3ccccc23)c([2H])c([2H])c1OC [Example 108],4.8
10,"COc1ccc(N(C)c2nc(C)nc3ccc([N+](=O)[O-])cc23)cc1 [Example 109, (4-Methoxy-phenyl)-(2-methyl-6-nitro-quinazolin-4-yl)-methyl-amine]",4.6
11,"COc1ccc(N(C)c2nc(C)nc3ccc(N)cc23)cc1 [Example 110, (6-Amino-2-methyl-quinazolin-4-yl)-(4-methoxy-phenyl)-methyl-amine]",8.8
12,"COc1ccc(N(C)c2nc(C)nc3ccc(N=[N+]=[N-])cc23)cc1 [Example 111, (6-Azido-2-methyl-quinazolin-4-yl)-(4-methoxy-phenyl)-methyl-amine]",9.4
13,"COc1ccc(N(C)c2nc(C)nc3cc([N+](=O)[O-])ccc23)cc1 [Example 112, (4-Methoxy-phenyl)-methyl-(2-methyl-7-nitro-quinazolin-4-yl)-amine]",1.0
14,"COc1ccc(N(C)c2nc(C)nc3cc(N)ccc23)cc1 [Example 113, (7-Amino-2-methyl-quinazolin-4-yl)-(4-methoxy-phenyl)-methyl-amine]",3.7
15,"COc1ccc(N(C)c2nc(C)nc3cc(N=[N+]=[N-])ccc23)cc1 [Example 114, (7-Azido-2-methyl-quinazolin-4-yl)-(4-methoxy-phenyl)-methyl-amine]",7.2
16,"COc1c(Br)cc(N(C)c2nc(C)nc3ccc([N+](=O)[O-])cc23)cc1Br [Example 115, (3,5-Dibromo-4-methoxy-phenyl)-(2-methyl-6-nitro-quinazolin-4-yl)-methyl-amine]",1.0
17,"Cc1nc(N(C)c2ccc(C(=O)O)cc2)c2ccccc2n1 [Example 116, 4-(N-Methyl-N-(2-methylquinazolin-4-yl)amino)benzoic Acid]",1.0
18,"CCOC(=O)c1nc(N(C)c2ccc(OC)cc2)c2ccccc2n1 [Example 117, Ethyl 4-(N-(4-Methoxy-phenyl)-N-methylamino)quinazoline-2-carboxylate]",7.4
19,"COc1ccc(N(C)c2nc(C(=O)O)nc3ccccc23)cc1 [Example 118, 4-(N-(4-Methoxy-phenyl)-N-methylamino)quinazoline-2-carboxylic Acid]",1.0
20,"Cc1nc(N(C)c2ccc(C(=O)ON3C(=O)CCC3=O)cc2)c2ccccc2n1 [Example 119, Succinimidyl 4-(N-Methyl-N-(2-methylquinazolin-4-yl)amino)benzoic Acid Ester]",11.8
21,"COc1ccc(N(C)c2nc(SC)nc3ccccc23)cc1 [Example 120, (2-Methylthio-quinazolin-4-yl)-(4-methoxy-phenyl)-methyl-amine]",5.2

row,Structure (SMILES),Caspase activity Ratio T-47D (24 hr)
1,"COc1ccc(N(C)c2nc(N=[N+]=[N-])nc3ccccc23)cc1 [Example 121, (2-Azido-quinazolin-4-yl)-(4-methoxy-phenyl)-methyl-amine]",8.8
2,"COc1ccc(N(C)c2nc(N(C)C)nc3ccccc23)cc1 [Example 122, (2-Dimethylamino-quinazolin-4-yl)-(4-methoxy-phenyl)-methyl-amine]",8.2
3,"CNc1nc(N(C)c2ccc(OC)cc2)c2ccccc2n1 [Example 123, (2-Methylamino-quinazolin-4-yl)-(4-methoxy-phenyl)-methyl-amine]",8.2
4,"Cc1nc(N(C)c2ccc(F)cc2)c2ccccc2n1 [Example 124, (4-Fluoro-phenyl)-(2-methyl-quinazolin-4-yl)-methyl-amine]",5.2
5,"COc1ccc(N(C)c2nc(C)nc3ccccc23)nn1 [Example 125, (6-Methoxy-pyridazin-3-yl)-(2-methyl-quinazolin-4-yl)-methyl-amine]",8.3
6,"COc1cnc(N(C)c2nc(C)nc3ccccc23)cn1 [Example 126, (5-Methoxy-pyrazin-2-yl)-(2-methyl-quinazolin-4-yl)-methyl-amine]",7.6
7,"Cc1nc(Nc2ccc(O)cc2)c2ccccc2n1 [Example 127, (4-hydroxy-phenyl)-(2-methyl-quinazolin-4-yl)-amine]",1.2
8,"COc1ccc(N(C)c2nc(N(C)C)nc3ccccc23)cn1 [Example 128, (2-Dimethylamino-quinazolin-4-yl)-(6-methoxy-pyridin-3-yl)-methyl-amine]",10
9,"CNc1nc(N(C)c2ccc(OC)nc2)c2ccccc2n1 [Example 129, (2-Methylamino-quinazolin-4-yl)-(6-methoxy-pyridin-3-yl)-methyl-amine]",10
10,"C[C@H]1CC[C@@H](Nc2nc(Cl)nc3ccccc23)CC1 [Example 130, (2-Chloro-quinazolin-4-yl)-(cis-4-methylcyclohexyl)-amine]",1.2
11,"CN(c1nc(Cl)nc2ccccc12)[C@H]1CC[C@@H](C)CC1 [Example 132, (2-Chloro-quinazolin-4-yl)-(cis-4-methylcyclohexyl)-methyl-amine]",1.2
12,"CN(c1nc(Cl)nc2ccccc12)[C@H]1CC[C@H](C)CC1 [Example 133, (2-Chloro-quinazolin-4-yl)-(trans-4-methylcyclohexyl)-methyl-amine]",1.2
13,"Cc1nc(N(C)c2cnccn2)c2ccccc2n1 [Example 134, (2-Methyl-quinazolin-4-yl)-(pyrazin-2-yl)-methyl-amine]",1.2
14,"Cc1nc(Nc2ccncc2)c2ccccc2n1 [Example 135, (2-Methyl-quinazolin-4-yl)-(pyridin-4-yl)-amine]",1.2
15,"Cc1nc(N(C)c2ccncc2)c2ccccc2n1 [Example 136, (2-Methyl-quinazolin-4-yl)-(pyridin-4-yl)-methyl-amine]",1.2
16,"COc1ccc(Nc2nc(C)nc3ccccc23)nc1 [Example 137, (5-Methoxy-pyridin-2-yl)-(2-methyl-quinazolin-4-yl)-amine]",1.2
17,"COc1ccc(N(C)c2nc(C)nc3ccccc23)nc1 [Example 138, (5-Methoxy-pyridin-2-yl)-(2-methyl-quinazolin-4-yl)-methyl-amine]",5.0
18,"COc1ccc(N(c2nc(C)nc3ccccc23)C(F)F)cc1 [Example 139, Difluoromethyl-(4-methoxy-phenyl)-(2-methyl-quinazolin-4-yl)-amine]",5.6
19,"COc1ccc(N(C)c2nc(C)nc3nccnc23)cc1 [Example 140, (4-Methoxy-phenyl)-(2-methyl-pteridin-4-yl)-methyl-amine]",7.0
20,"COc1cnc(Nc2nc(C)nc3ccccc23)nc1 [Example 141, (5-Methoxy-pyrimidin-2-yl)-(2-methyl-quinazolin-4-yl)-amine]",1.2

# Same assay, conditions: T-47D, 48 hr; benzohydrazide analogs table
row,Structure (SMILES),Ratio T-47D (48 hr)
1,"CSc1nc(N(C)NC(=O)c2cccc(C)c2)c2ccccc2n1 [N′,3-dimethyl-N′-(2-(methylthio)quinazolin-4-yl)benzohydrazide]",12.7
2,COc1ccc(C(=O)NN(C)c2nc(C(F)(F)F)nc3ccccc23)cc1 [N′-(2-(trifluoromethyl)quinazolin-4-yl)-4-methoxy-N′-methylbenzohydrazide],13.1
3,CSc1nc(N(C)NC(=O)c2ccccc2)c2ccccc2n1 [N′-methyl-N′-(2-(methylthio)quinazolin-4-yl)benzohydrazide],14.7
4,CSc1nc(N(C)NC(=O)c2cccs2)c2ccccc2n1 [N′-methyl-N′-(2-(methylthio)quinazolin-4-yl)thiophene-2-carbohydrazide],10.1

# Same assay, conditions: T-47D, 48 hr; ratio of net RFU to control
row,Structure (SMILES),Caspase activity Ratio T-47D (48 hr)
1,"Cc1nc(N(C)c2ccc(N=[N+]=[N-])cc2)c2ccccc2n1 [Example 102, (4-Azido-phenyl)-(2-methyl-quinazolin-4-yl)-methyl-amine]",11.3
